The test system of this assay is CD14^+ monocytes. In words: Zinc chelation: macaque blood monocytes, SAMT-247 and/or gp120 peptides with or without TPEN. It counts as cell-based. The protocol: Zinc chelation: The frequencies and cytokine levels of NK cells, monocytes and T cells were measured in macaque blood. Cryopreserved PBMCs were thawed and cultured in R10 in the presence/or absence of SAMT-247 and/or gp120 peptides for 12 hours. Cells were incubated with or without Zinc chelator TPEN (cat. #P4413-100 MG, 5 μM) for 12 h. Subsequently, cells were stained for live cells with Live/Dead Blue dye (cat. #L34962, 0.5 μl) from Thermofisher; followed by surface staining with the following: Alexa 700 anti-CD3 (SP34-2; cat. #557917, 5 μl), BV711 anti-CD4 (L200; cat. #563913, 5 μl), BB700 anti-CD8 (RPA-T8; cat. #566452, 5 μl), BUV737 anti-CD20 (2H7; cat. #612848, 5 μl), PE anti-CD45 (D058-1283; cat. #552833, 5 μl), BV786 anti-CCR5 (3A9; cat. #565001, 5 μl), BV496 anti-CD16 (3G8; cat. #612944, 5 μl), BUV661 anti-HLA-DR (G46-6; cat. #612980, 5 μl), BUV805 anti-CD14 (M5E2; cat. #565779, 5 μl) from BD Biosciences; APC-H7 anti-CD11b (ICRF44; cat. #47-0118-42, 5 μl), PE-Cy5 anti-CD95 (ICRF44; cat. #15-0959-42, 5 μl) from eBioscience; APC anti-α4β7, provided by the NIH Nonhuman Primate Reagent Resource (R24 OD010976, and NIAID contract HHSN272201300031C); BV605 anti-CCR6 (G034E3; cat. #353420, 5 μl), BV650 anti-CXCR3 (G025H7; cat. #353730, 5 μl), from Biolegend and PE-Cy7 anti-NKG2A (Z199; cat. #B10246, 5 μl) from Beckman coulter for 30 minutes at room temperature. This was followed by permeabilization with a FOX3-transcription buffer set (cat. #00-5523-00) from eBioscience according to the manufacture's recommendation and subsequently intracellular staining with the following: BV750 anti-TNF-α (MAB11; cat. #566359, 5 μl), BUV395 anti-IFN-γ (B27; cat. #563563, 5 μl), BV510 anti-GranB (GB11; cat. #563388, 5 μl), BV421 anti-IL-10 (JES3-9D7; cat. #564053, 5 μl), PE-CF594 anti-Ki67 (B56; cat. #567120, 5 μl) from BD Biosciences and FITC anti-Perforin (pf-344; cat. #3465-7, 5 μl) from MABTECH for 30 minutes at room temperature. Flow cytometry acquisitions were performed on a FACSYMPHONY™ A5 and examined using FACSDIVA™ software (BD Biosciences).

For `CC(=O)Sc1ccccc1C(=O)NCCC(N)=O` [SAMT-247], the Cytokine result (Monocytes unstimulated or +gp120 peptides, * Zinc dependence) is given as “>IL-10 *”. Further, where the note is “SAMT-247 alone or together with gp120 peptides”, the “IL-10 expression in CD14^+ monocytes” value was “increased”.

For the origin of these results see patent US20240277829A1, “HIV-1 VACCINATION AND SAMT-247 MICROBICIDE TO PREVENT HIV-1 INFECTION” (priority 2021, published 2024).
